Laboratory results taken from patent publication US20230146395A1, “Substituted Pyrimidines and Uses Thereof” (Verge Analytics, Inc., priority 2020, published 2023).

Legend:
[1] = target: T1, Full length human recombinant PIKFYVE (Homo sapiens, UniProt Q9Y2I7); assay: Inhibition of PIKfyve (microfluidic electrophoresis kinase assay, PI3P/PS substrate); format: biochemical; settings: 12 concentrations
T1 construct: Full length human recombinant PIKFYVE; purchased Carna Biosciences (Kobe, Japan); host or cells: baculovirus expression system
Method in brief: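 GST-tagged full-length human PIKFYVE (baculovirus; 2 nM) with fluorescent PI3P/PS (1 μM PI3P) and […] in pH 7.5 HEPES with Mg2+/Mn2+, 1% DMSO, 3 h at room temperature. PI(3,5)P product/substrate ratio read by microfluidic electrophoresis; 12-point % inhibition versus no-enzyme and DMSO controls.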

[2] = tested on: HEK 293T transfected with plasmids containing TDP-43 Q331K mutation; assay: HEK/TDP Survival assay (Cell-Titer-Glo, 48 hrs, maximal effect of rescue); format: cell-based; settings: Homo sapiens, HEK 293T with TDP-43 Q331K, (n) in brackets
Description: HEK/TDP Survival assay: Immortalized human embryonic kidney 293T (HEK 293T) were transfected with plasmids containing TDP-43 Q331K mutation, resulting in an increase in cell death that is biologically relevant to ALS patients. Cell death is measured as reductions in the amount of ATP, an indicator of metabolically active cells, that is quantified by a luminescence Cell-Titer-Glo® (CTG) reagent. Compounds are evaluated in this model for changes in CTG compared to a no treatment group. Increased signal indicates improved survival (rescue) and decreased signal indicates decreased survival.
Cell rescue was measured in a 96-well format with eight different concentrations of the test compound over 48 hours (hrs) with 6 replicates. The Promega Cell-Titer-Glo® Luminescent Cell Viability Assay was used to quantify ATP, an indicator of metabolically active cells (see protocol: https://www.promega.com/-/media/files/resources/protocols/technical-manuals/101/celltiterglo-2-0-assay-protocol.pdf?la=en). The luminescence signal was detected using the PerkinElmer EnVision or Molecular Devices SpectraMax.
The effect of a compound at a given dose on cell viability was determined using a three step procedure. First, Hedge's g for the Cell Titer-Glo luminescence values using six untreated wells on every plate as a control was calculated. […] Finally, values from all compound-dose pairs were corrected for multiple hypothesis testing using the Empirical Bayes framework of Stephens, M. (False discovery rates: a new deal, Biostatistics, 18 [2], 2017, 275-294) yielding credible intervals for the measured effect and associated s values.
Briefly, this method computes a local false sign rate for each experiment. Analogous to the local false discovery rate of Efron, B. (Size, power and false discovery rates, Ann. Statist. 35 [4], 2007, 1351-1377) this value measures the confidence in the sign of each effect (rather than confidence in each effect being non-zero). The s values reported in the previous figures are the expected fraction of errors if estimating the sign of all effects with greater absolute local false sign rate, defined in analogy to the q value of Storey, JD (The positive false discovery rate: a Bayesian interpretation and the q-value, Ann. Statist. 31 [6] 2003, 2013-2035).
Drugs that yielded signed log s values greater than 3 were considered hits. This threshold was determined by a separate calibration experiment in which Cell Titer-Glo® was measured in blank plates consisting of untreated cells to assess the noise inherent in the assay. Data are presented as the maximal effect of rescue obtained from the dose-response curve.

T1 sequence (Q9Y2I7 whole entry): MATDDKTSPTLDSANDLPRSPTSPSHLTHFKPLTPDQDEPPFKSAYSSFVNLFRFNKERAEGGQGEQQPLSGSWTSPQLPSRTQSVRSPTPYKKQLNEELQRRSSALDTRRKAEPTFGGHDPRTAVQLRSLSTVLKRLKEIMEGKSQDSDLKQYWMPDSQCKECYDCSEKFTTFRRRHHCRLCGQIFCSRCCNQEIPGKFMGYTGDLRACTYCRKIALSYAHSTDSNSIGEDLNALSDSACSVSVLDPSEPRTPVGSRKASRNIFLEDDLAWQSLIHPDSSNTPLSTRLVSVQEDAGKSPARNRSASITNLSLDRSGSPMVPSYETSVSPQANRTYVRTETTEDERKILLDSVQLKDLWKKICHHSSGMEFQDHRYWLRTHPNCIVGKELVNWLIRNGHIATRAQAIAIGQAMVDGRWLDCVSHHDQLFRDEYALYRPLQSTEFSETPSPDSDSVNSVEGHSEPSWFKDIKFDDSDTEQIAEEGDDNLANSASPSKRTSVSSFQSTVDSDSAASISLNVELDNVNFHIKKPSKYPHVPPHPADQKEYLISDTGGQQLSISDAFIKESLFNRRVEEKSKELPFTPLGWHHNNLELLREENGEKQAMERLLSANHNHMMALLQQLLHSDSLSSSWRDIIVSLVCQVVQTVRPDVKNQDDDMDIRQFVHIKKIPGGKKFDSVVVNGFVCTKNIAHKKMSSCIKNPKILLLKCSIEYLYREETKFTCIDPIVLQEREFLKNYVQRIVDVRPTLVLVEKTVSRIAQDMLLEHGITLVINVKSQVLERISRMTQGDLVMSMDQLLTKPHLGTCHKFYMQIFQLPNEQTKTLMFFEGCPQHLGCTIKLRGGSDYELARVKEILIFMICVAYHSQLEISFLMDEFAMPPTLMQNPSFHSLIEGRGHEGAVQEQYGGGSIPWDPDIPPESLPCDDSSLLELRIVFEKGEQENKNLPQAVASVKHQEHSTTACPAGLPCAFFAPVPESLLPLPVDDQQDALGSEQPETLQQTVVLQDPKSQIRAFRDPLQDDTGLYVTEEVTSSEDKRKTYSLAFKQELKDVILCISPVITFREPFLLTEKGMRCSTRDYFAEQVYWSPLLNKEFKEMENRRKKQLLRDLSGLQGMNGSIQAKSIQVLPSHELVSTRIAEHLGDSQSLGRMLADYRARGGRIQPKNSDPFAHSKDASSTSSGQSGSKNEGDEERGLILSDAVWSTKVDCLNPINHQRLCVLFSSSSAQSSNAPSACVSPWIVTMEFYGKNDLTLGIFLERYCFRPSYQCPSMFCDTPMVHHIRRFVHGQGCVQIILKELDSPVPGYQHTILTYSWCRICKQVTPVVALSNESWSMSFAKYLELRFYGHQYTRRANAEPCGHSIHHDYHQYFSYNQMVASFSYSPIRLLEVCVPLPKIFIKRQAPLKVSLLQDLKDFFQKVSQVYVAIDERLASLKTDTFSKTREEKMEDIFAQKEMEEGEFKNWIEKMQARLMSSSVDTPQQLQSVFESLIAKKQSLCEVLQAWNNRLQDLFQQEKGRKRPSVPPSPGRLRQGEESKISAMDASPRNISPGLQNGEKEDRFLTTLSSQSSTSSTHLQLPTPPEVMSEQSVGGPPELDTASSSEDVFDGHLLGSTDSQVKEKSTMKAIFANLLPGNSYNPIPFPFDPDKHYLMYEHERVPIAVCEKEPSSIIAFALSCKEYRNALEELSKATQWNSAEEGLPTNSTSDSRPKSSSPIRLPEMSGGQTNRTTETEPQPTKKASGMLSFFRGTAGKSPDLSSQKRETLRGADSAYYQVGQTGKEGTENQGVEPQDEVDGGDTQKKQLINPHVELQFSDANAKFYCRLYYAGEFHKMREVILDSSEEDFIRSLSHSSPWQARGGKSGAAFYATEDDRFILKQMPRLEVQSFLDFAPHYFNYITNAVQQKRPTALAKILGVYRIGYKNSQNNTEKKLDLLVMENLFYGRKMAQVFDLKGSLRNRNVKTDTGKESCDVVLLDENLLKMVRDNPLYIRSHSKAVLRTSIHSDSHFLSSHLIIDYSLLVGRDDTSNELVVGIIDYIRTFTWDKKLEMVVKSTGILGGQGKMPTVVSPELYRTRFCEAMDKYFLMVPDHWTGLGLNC

Cc1cccc(-c2ccn(-c3nc(N4CCOCC4)c4oc(-c5ccccn5)c(C(F)(F)F)c4n3)n2)c1 [Compound 112, 4-morpholino-6-(pyridin-2-yl)-2-(3-(m-tolyl)-1H-pyrazol-1-yl)-7-(trifluoromethyl) furo[3,2-d]pyrimidine]
IC50 [1]: > 10 µM
EC50 [2]: 153 nM

Cc1cccc(-c2ccn(-c3nc(N4CCOCC4)c4oc(-c5ccncc5)cc4n3)n2)c1 [Compound 89, 4-morpholino-6-(pyridin-4-yl)-2-(3-(m-tolyl)-1H-pyrazol-1-yl)furo[3,2-d]pyrimidine]
IC50 [1]: 0.019 µM
EC50 [2]: 31.5 nM

Cc1cccc(-c2cnn(-c3nc(N4CCOCC4)c4oc(C(=O)NC5CCCN(C)C5)cc4n3)c2)c1 (stereo not drawn) [Compound 123, N-(1-methylpiperidin-3-yl)-4-morpholino-2-(4-(m-tolyl)-1H-pyrazol-1-yl)furo[3,2-d]pyrimidine-6-carboxamide]
IC50 [1]: 0.0033 µM
EC50 [2]: 28.5 nM

Cc1cccc(-c2cnn(-c3nc(N4CCOCC4)c4oc(C(=O)NC5CCOCC5)cc4n3)c2)c1 [Compound 125, 4-morpholino-N-(tetrahydro-2H-pyran-4-yl)-2-(4-(m-tolyl)-1H-pyrazol-1-yl)furo[3,2-d]pyrimidine-6-carboxamide]
IC50 [1]: 0.0009 µM
EC50 [2]: 26 nM

Cc1cccc(-c2cnn(-c3nc(N4CCOCC4)c4oc(C(=O)NC5CC5)c(C)c4n3)c2)c1 [Compound 127, N-cyclopropyl-7-methyl-4-morpholino-2-(4-(m-tolyl)-1H-pyrazol-1-yl)furo[3,2-d]pyrimidine-6-carboxamide]
IC50 [1]: 0.034 µM
EC50 [2]: 48 nM

Cc1cccc(-c2cnn(-c3nc(N4CCOCC4)c4oc(C(=O)N[C@@H](C)C5CC5)cc4n3)c2)c1 [Compound 113, (S)-N-(1-cyclopropylethyl)-4-morpholino-2-(4-(m-tolyl)-1H-pyrazol-1-yl)furo[3,2-d]pyrimidine-6-carboxamide]
IC50 [1]: 0.0002 µM
EC50 [2]: 16 nM

C[C@H](NC(=O)c1cc2nc(-n3cc(-c4ccccc4)cn3)nc(N3CCOCC3)c2o1)C1CC1 [Compound 114, (S)-N-(1-cyclopropylethyl)-4-morpholino-2-(4-phenyl-1H-pyrazol-1-yl)furo[3,2-d]pyrimidine-6-carboxamide]
IC50 [1]: 0.0096 µM
EC50 [2]: 61 nM

Cc1cccc(-c2ccn(-c3nc(N4CCOCC4)c4oc(C(=O)NC5COC5)cc4n3)n2)c1 [Compound 104, 4-morpholino-N-(oxetan-3-yl)-2-(3-(m-tolyl)-1H-pyrazol-1-yl)furo[3,2-d]pyrimidine-6-carboxamide]
IC50 [1]: 0.0412 µM
EC50 [2]: 98 nM

Cc1cccc(-c2cnn(-c3nc(N4CCOCC4)c4oc(C(=O)NC5CCN(C)CC5)cc4n3)c2)c1 [Compound 121, N-(1-methylpiperidin-4-yl)-4-morpholino-2-(4-(m-tolyl)-1H-pyrazol-1-yl)furo[3,2-d]pyrimidine-6-carboxamide]
IC50 [1]: 0.0012 µM
EC50 [2]: 21.5 nM

Cc1cccc(-c2cnn(-c3nc(N4CCOCC4)c4oc(-c5cc(C)nn5CCN(C)C)cc4n3)c2)c1 [Compound 145, N,N-dimethyl-2-[3-methyl-5-[4-morpholino-2-[4-(m-tolyl)pyrazol-1-yl]furo[3,2-d]pyrimidin-6-yl]pyrazol-1-yl]ethanamine]
IC50 [1]: 0.0186 µM
EC50 [2]: 27 nM

Cc1cccc(-c2cnn(-c3nc(N4CCOCC4)c4oc(C(=O)NCCCS(=O)(=O)N(C)C)cc4n3)c2)c1 [Compound 120, N-(3-(N,N-dimethylsulfamoyl)propyl)-4-morpholino-2-(4-(m-tolyl)-1H-pyrazol-1-yl)furo[3,2-d]pyrimidine-6-carboxamide]
IC50 [1]: 0.0162 µM
EC50 [2]: 121 nM

Cc1cccc(-c2ccn(-c3nc(N4CCOCC4)c4oc(C(=O)NCCCN(C)C)cc4n3)n2)c1 [Compound 109, N-(3-(dimethylamino)propyl)-4-morpholino-2-(3-(m-tolyl)-1H-pyrazol-1-yl)furo[3,2-d]pyrimidine-6-carboxamide]
IC50 [1]: 0.0117 µM
EC50 [2]: 46.5 nM

Cc1cccc(-c2cnn(-c3nc(N4CCOCC4)c4oc(C(=O)NC5CCCN(C)CC5)cc4n3)c2)c1 (stereo not drawn) [Compound 129, N-(1-methylazepan-4-yl)-4-morpholino-2-(4-(m-tolyl)-1H-pyrazol-1-yl)furo[3,2-d]pyrimidine-6-carboxamide]
IC50 [1]: 0.0118 µM
EC50 [2]: 9 nM

Cc1cccc(-c2ccn(-c3nc(N4CCOCC4)c4oc(C(=O)NCC5COC5)cc4n3)n2)c1 [Compound 105, 4-morpholino-N-(oxetan-3-ylmethyl)-2-(3-(m-tolyl)-1H-pyrazol-1-yl)furo[3,2-d]pyrimidine-6-carboxamide]
IC50 [1]: 0.0323 µM
EC50 [2]: 100 nM

Cc1cccc(-c2ccn(-c3nc(N4CCOCC4)c4oc(C(=O)NCC5CC5)cc4n3)n2)c1 [Compound 97, N-(cyclopropylmethy 1)-4-morpholino-2-(3-(m-tolyl)-1H-pyrazol-1-yl)furo[3,2-d]pyrimidine-6-carboxamide]
IC50 [1]: 0.017 µM
EC50 [2]: 16.5 nM

Cc1cccc(-c2cnn(-c3nc(N4CCOCC4)c4oc(C(=O)NCCCCN(C)C)cc4n3)c2)c1 [Compound 110, N-(4-(dimethylamino)butyl)-4-morpholino-2-(4-(m-tolyl)-1H-pyrazol-1-yl)furo[3,2-d]pyrimidine-6-carboxamide]
IC50 [1]: 0.0029 µM
EC50 [2]: 33 nM

Cc1cccc(-c2cnn(-c3nc(N4CCOCC4)c4oc(-c5cc(C)n(CCN(C)C)n5)cc4n3)c2)c1 [Compound 146, N,N-dimethyl-2-(5-methyl-3-(4-morpholino-2-(4-(m-tolyl)-1H-pyrazol-1-yl)furo[3,2-d]pyrimidin-6-yl)-1H-pyrazol-1-yl)ethanamine]
IC50 [1]: 0.0003 µM
EC50 [2]: 11 nM

c1cncc(-c2cc(Nc3nc(N4CCOCC4)c4oc(-c5ccncc5)cc4n3)[nH]n2)c1 [Compound 18, 4-morpholino-6-(4-pyridyl)-N-[5-(3-pyridyl)-1H-pyrazol-3-yl]furo[3,2-d]pyrimidin-2-amine, hydrogen chloride]
IC50 [1]: 0.144 µM

c1ccc(-c2nnc(Nc3nc(N4CCOCC4)c4oc(-c5ccncc5)cc4n3)o2)cc1 [Compound 47, 4-morpholino-N-(5-phenyl-1,3,4-oxadiazol-2-yl)-6-(4-pyridyl)furo[3,2-d]pyrimidin-2-amine, hydrogen chloride]
IC50 [1]: 0.052 µM

c1ccc(-c2cc(Nc3nc(N4CCOCC4)c4oc(-c5ccncc5)cc4n3)[nH]n2)nc1 [Compound 19, 4-morpholino-6-(4-pyridyl)-N-[5-(2-pyridyl)-1H-pyrazol-3-yl]furo[3,2-d]pyrimidin-2-amine, hydrogen chloride]
IC50 [1]: 0.064 µM

O=C(NC1CCOC1)c1cc2nc(-n3cc(-c4ccccc4)cn3)nc(N3CCOCC3)c2o1 (stereo not drawn) [Compound 172, 4-morpholino-2-(4-phenylpyrazol-1-yl)-N-tetrahydrofuran-3-yl-furo[3,2-d]pyrimidine-6-carboxamide]
IC50 [1]: 0.0378 µM

CCN(C)C(=O)c1cc2nc(Nc3cc(-c4ccccc4)[nH]n3)nc(N3CCOCC3)c2o1 [Compound 57, N-ethyl-N-methyl-4-morpholino-2-[(5-phenyl-1H-pyrazol-3-yl)amino]furo[3,2-d]pyrimidine-6-carboxamide, hydrogen chloride]
IC50 [1]: 0.037 µM

Cc1cccc(-c2cc(Nc3nc(N4CCOCC4)c4oc(-c5cccnc5)cc4n3)[nH]n2)c1 [Compound 30, 4-morpholino-N-[5-(m-tolyl)-1H-pyrazol-3-yl]-6-(3-pyridyl)furo[3,2-d]pyrimidin-2-amine, hydrogen chloride]
IC50 [1]: 0.0005 µM

CNC(=O)c1cc2nc(Nc3cc(-c4ccccc4)[nH]n3)nc(N3CCOCC3)c2o1 [Compound 138, N-methyl-4-morpholino-2-((5-phenyl-1H-pyrazol-3-yl)amino)furo[3,2-d]pyrimidine-6-carboxamide]
IC50 [1]: 0.033 µM

c1cc(-c2cc3nc(Nc4cc(C5CC5)n[nH]4)nc(N4CCOCC4)c3o2)ccn1 [Compound 68, N-(5-cyclopropyl-1H-pyrazol-3-yl)-4-morpholino-6-(pyridin-4-yl)furo[3,2-d]pyrimidin-2-amine, hydrogen chloride]
IC50 [1]: 0.185 µM
